What all share (assay type): cell-based
Assay [1] concerns HeLa (Cervical) cancer cell line. The experiment in a line: Cytotoxic activity (United States NCI protocol), HeLa. The settings on record: Homo sapiens; for IC (TGI): read-out: TGI. On the procedure:
(§1) The cytotoxicity experiment was performed according to the United States NCI protocol, previously reported method. A detailed experimental procedure was given in Supplementary Material ([Premnath et al., 2015]).
(§2) The newly prepared compounds 1a–1j are examined for their cytotoxic activity according to the United States NCI protocol, which was a previously reported method ([Chadha and Silakari, 2017]). The 50% growth inhibition (GI50), tumor growth inhibition (TGI), and lethal concentration (LC50) values were determined. […] Doxorubicin was used as a standard drug. None of the tested derivatives had shown significant activity toward the cancer cell lines. The compounds were also evaluated for their possible cytotoxicity in human embryonic kidney cells (HEK-293), lung cells (MRC-5), and liver cells (LO2) by employing MTT assay. […] The results of cytotoxic screening of compounds (1a–1j) are shown in Table 2, and in vitro cytotoxicity of indole derivatives (1a–1j) on normal cells are shown in Table 3.

Another assay concerns lung cells (MRC5). The experiment in a line: In vitro cytotoxicity on normal cells, MTT assay, MRC5. The settings on record: Homo sapiens. On the procedure:
as §2
(§3) None of the tested derivatives had shown significant activity toward the cancer cell lines. The compounds were also evaluated for the possible cytotoxicity in human embryonic kidney cells (HEK-293), lung cells (MRC5), and liver cells (LO2) by employing MTT assay.
(Formazan colour is commonly taken as a measure of viable cells.)

The test system of a further assay is liver cells (LO2). The assay is described as follows: In vitro cytotoxicity on normal cells, MTT assay, LO2. How it is done:
as §2, §3

Assay [2] relates to MCF-7 (Breast) cancer cell line. The assay is described as follows: Cytotoxic activity (United States NCI protocol), MCF-7. The conditions noted are these: Homo sapiens; for GI50: 50% growth inhibition; for IC (TGI): tumor growth inhibition. How it is done:
as §1, §2

In assay [3] the test system is human embryonic kidney cells (HEK-293). The assay is described as follows: In vitro cytotoxicity on normal cells, MTT assay, HEK-293. The settings on record: HEK293, HEK-293 normal kidney cells. How it is done: as §2, §3
Assay [4] concerns HepG2 (Liver) cancer cell line. The experiment in a line: Cytotoxic activity (United States NCI protocol), HepG2. The conditions noted are these: Homo sapiens. How it is done: as §1, §2
[5] abbreviates: 50% growth inhibition, read-out: GI50.
The mark [6] stands for this setting: lethal concentration, read-out: LC50 (the source's name).
The mark [7] stands for this setting: MCF7, MCF-7, lethal concentration, read-out: LC50 (the source's name).
[8] abbreviates: HepG2, lethal concentration, read-out: LC50.
Setting [9] is: HepG2, tumor growth inhibition, read-out: TGI.

Ten compounds from article PMC8144490, “Synthesis and Cytotoxic Activity of Novel Indole Derivatives and Their in silico Screening on Spike Glycoprotein of SARS-CoV-2” (Frontiers in Molecular Biosciences, 2021) can be followed below.

pIC50: −log10 of the molar value. Read-outs that look alike come from different tables or passages of the source. Where only a bound is given, the exact number is not on record here.

For orientation: pIC50 means the IC50 on a negative log10 scale, so that one unit is a factor of ten. Lower therefore signals a large IC50. The term GI50 denotes the concentration that inhibits growth by half.

Take `C(=N\NC(c1ccccc1)n1ccc2ccccc21)/c1ccco1` (centres unmarked) [Compound 1a]: the CC50 was 100 µM in assay [1] (read-out: LC50) and over 100 µM in assay [2] (MCF7, read-out: LC50). For the same compound, the pIC50 with lung cells (MRC5) was 4.12; in the assay on liver cells (LO2), 4.17; in assay [3] it was 4.15. The same compound returned a GI50 in assay [4] (HepG2) of 43.2 µM. Further, the LC50 (NCI lethal concentration 50%) in assay [4] (HepG2, read-out: LC50) is over 100 µM. The IC (TGI) in assay [4] (HepG2, read-out: TGI) came out at 78.3 µM.
On to `O=[N+]([O-])c1cccc(C(N/N=C/c2ccco2)n2ccc3ccccc32)c1` (centres unmarked) [Compound 1b], for which the GI50 turned out to be 51 µM in assay [1] (setting [5]); 46.1 µM in assay [2] (MCF7, MCF-7); 42.2 µM in assay [4] (HepG2). Further, the CC50 in assay [1] (setting [6]) and in assay [2] (setting [7]) was over 100 µM each time. Further, the IC (TGI) in assay [1] (tumor growth inhibition) amounted to 89.2 µM; in assay [2] (MCF7, MCF-7), 85.1 µM; in assay [4] (setting [9]), 23.1 µM. Moreover, the pIC50 in the assay with lung cells (MRC5) is 4.17; in the assay with liver cells (LO2), 4.14; in assay [3] it was 4.21. The LC50 (NCI lethal concentration 50%) in assay [4] (setting [8]) was 56.8 µM.
Regarding `Oc1ccc(C(NN=Cc2ccco2)n2ccc3ccccc32)cc1` (centres unmarked) [Compound 1c], the GI50 worked out at 41.3 µM in assay [1] and 36.3 µM in assay [4] (HepG2). Further, the CC50 in assay [1] (read-out: LC50) is 0.5 µM; in assay [2] (MCF7, read-out: LC50), 0.55 µM. Moreover, the IC (TGI) in assay [1] is 87.2 µM; in assay [4] (HepG2, read-out: TGI), 65.3 µM. Also, the pIC50 in the assay on lung cells (MRC5) was 4.06; with liver cells (LO2) it was 4.06; in assay [3], 4.09. Moreover, in assay [4] (HepG2, read-out: LC50), the LC50 (NCI lethal concentration 50%) was determined as 0.9 µM.
For the compound `Clc1ccc(C(N/N=C/c2ccco2)n2ccc3ccccc32)cc1` (centres unmarked) [Compound 1d], the GI50 in assay [1] (setting [5]) came to 8.9 µM; in assay [2] (MCF7, MCF-7), 0.89 µM; in assay [4] (HepG2), 1 µM. The CC50 in assay [1] (setting [6]) is 0.5 µM; in assay [2] (setting [7]) it was 65 µM. Further, the IC (TGI) in assay [1] (tumor growth inhibition) amounted to 6.8 µM; in assay [2] (MCF7, MCF-7), 9.3 µM; in assay [4] (setting [9]), 0.25 µM. The results for the pIC50 (in the assay on lung cells (MRC5); in the assay with liver cells (LO2); in assay [3]) were 4.25, 4.18 and 4.10, respectively. For the same compound, the LC50 (NCI lethal concentration 50%) in assay [4] (setting [8]) came to 54 µM.
Regarding `COc1ccc(C(N/N=C/c2ccco2)n2ccc3ccccc32)cc1` (centres unmarked) [Compound 1e], the GI50 in assay [1] (setting [5]) amounted to 34.2 µM; in assay [2] (MCF7, MCF-7), 24.4 µM; in assay [4] (HepG2) it was 15.9 µM. In addition, the CC50 in assay [1] (setting [6]) is over 100 µM; in assay [2] (setting [7]) it was 66.3 µM. For the same compound, the IC (TGI) in assay [1] (tumor growth inhibition) was 72.1 µM; in assay [2] (MCF7, MCF-7) it was 59.3 µM; in assay [4] (setting [9]) it was 38.2 µM. Moreover, the pIC50 in the assay on lung cells (MRC5) was 4.14; with liver cells (LO2), 4.25; in assay [3], 4.24. The LC50 (NCI lethal concentration 50%) in assay [4] (setting [8]) is 44.8 µM.
In the case of `Oc1ccccc1C(N/N=C/c1ccco1)n1ccc2ccccc21` (centres unmarked) [Compound 1f], the GI50 in assay [1] (setting [5]) worked out at 21.6 µM; in assay [2] (MCF7, MCF-7) it was 18.6 µM; in assay [4] (HepG2), 29.1 µM. For the same compound, the CC50 amounted to 77.4 µM in assay [1] (setting [6]) and 42.3 µM in assay [2] (setting [7]). Also, the IC (TGI) in assay [1] (tumor growth inhibition) is 54.7 µM; in assay [2] (MCF7, MCF-7) it was 41.8 µM; in assay [4] (setting [9]), 46.8 µM. Further, the pIC50 was 4.29 in the assay with lung cells (MRC5), 4.17 in the assay on liver cells (LO2) and 4.18 in assay [3]. Moreover, the LC50 (NCI lethal concentration 50%) in assay [4] (setting [8]) stood at 57.5 µM.
As to `COc1cc(C(N/N=C/c2ccco2)n2ccc3ccccc32)ccc1O` (centres unmarked) [Compound 1g], the GI50 is 37.9 µM in assay [1] (setting [5]); 34 µM in assay [2] (MCF7, MCF-7); 48 µM in assay [4] (HepG2). Also, the CC50 in assay [1] (setting [6]) is 58.9 µM; in assay [2] (setting [7]), 30.5 µM. For the same compound, the IC (TGI) in assay [1] (tumor growth inhibition) worked out at 51.9 µM; in assay [2] (MCF7, MCF-7), 67.4 µM; in assay [4] (setting [9]), 61.3 µM. Besides, the negative-log IC50 (pIC50) with lung cells (MRC5) was 4.20; with liver cells (LO2), 4.15; in assay [3] it was 4.23. Besides, the LC50 (NCI lethal concentration 50%) in assay [4] (setting [8]) was 59.3 µM.
As for `CN(C)c1ccc(C(N/N=C/c2ccco2)n2ccc3ccccc32)cc1` (centres unmarked) [Compound 1h], the 50% growth inhibitory concentration (GI50) in assay [1] (setting [5]) turned out to be 52.9 µM; in assay [2] (MCF7, MCF-7), 12.9 µM; in assay [4] (HepG2) it was 21.3 µM. For the same compound, the CC50 is over 100 µM in assay [1] (setting [6]) and 10.3 µM in assay [2] (setting [7]). The IC (TGI) came out at 81.3 µM in assay [1] (tumor growth inhibition); 45.3 µM in assay [2] (MCF7, MCF-7); 41 µM in assay [4] (setting [9]). Also, the pIC50 in the assay on lung cells (MRC5) was 4.18; in the assay on liver cells (LO2), 4.23; in assay [3], 4.17. For the same compound, the LC50 (NCI lethal concentration 50%) in assay [4] (setting [8]) was found to be 72.1 µM.
For the compound `C(=N\NCn1ccc2ccccc21)/c1ccco1` [Compound 1j], the GI50 in assay [1] (setting [5]) is 2.3 µM; in assay [2] (MCF7, MCF-7), 56 µM; in assay [4] (HepG2), 40.3 µM. The CC50 in assay [1] (setting [6]) came out at 48.3 µM; in assay [2] (setting [7]) it was 78.6 µM. Also, the IC (TGI) in assay [1] (tumor growth inhibition) was determined as 58.3 µM; in assay [2] (MCF7, MCF-7), 49.3 µM; in assay [4] (setting [9]) it was 45.3 µM. Also, the pIC50 with lung cells (MRC5) is 4.12; with liver cells (LO2) it was 4.15; in assay [3] it was 4.28. Also, in assay [4] (setting [8]), the LC50 (NCI lethal concentration 50%) is 66.8 µM.
Turning to `COc1cccc2c1C(=O)c1c(O)c3c(c(O)c1C2=O)C[C@@](O)(C(=O)CO)C[C@@H]3O[C@H]1C[C@H](N)[C@H](O)[C@H](C)O1` [Doxorubicin, reference compound], the GI50 in assay [1] (setting [5]) is 0.05 µM; in assay [2] (MCF7, MCF-7) it was 0.02 µM; in assay [4] (HepG2), 0.01 µM. The CC50 in assay [1] (setting [6]) is 0.88 µM; in assay [2] (setting [7]) it was 0.74 µM. Also, the IC (TGI) in assay [1] (tumor growth inhibition) was found to be 0.41 µM; in assay [2] (MCF7, MCF-7), 0.21 µM; in assay [4] (setting [9]), 0.13 µM.
